The record followed here is US20260355196A1, “INHIBITORS AND DEGRADERS OF PIP4K PROTEIN” (Larkspur Biosciences, Inc., priority 2023, published 2026).

The target in one assay is T1, PIP4K2C (Homo sapiens, UniProt Q8TBX8).
T1 sequence (Q8TBX8 1-421): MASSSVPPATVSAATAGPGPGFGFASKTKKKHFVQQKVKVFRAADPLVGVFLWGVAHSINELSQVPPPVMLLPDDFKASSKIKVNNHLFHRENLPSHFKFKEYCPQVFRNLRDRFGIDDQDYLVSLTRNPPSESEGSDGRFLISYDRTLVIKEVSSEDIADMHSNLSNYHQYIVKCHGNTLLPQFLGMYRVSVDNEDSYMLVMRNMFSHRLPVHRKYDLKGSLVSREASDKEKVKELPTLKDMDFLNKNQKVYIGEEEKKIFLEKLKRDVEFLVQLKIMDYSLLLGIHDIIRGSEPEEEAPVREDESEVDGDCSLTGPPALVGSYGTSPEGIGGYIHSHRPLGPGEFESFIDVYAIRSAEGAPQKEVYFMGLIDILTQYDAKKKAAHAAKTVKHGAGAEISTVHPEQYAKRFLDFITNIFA
The experiment in a line: HiBiT PIP4K2C degradation assay in MOLT-4 cells (endogenous PIP4K2C C-terminally tagged with HiBiT). The format is cell-based. Also on record: untagged in primary human PBMCs and monocyte-derived dendritic cells. As to conditions: 6 hours of incubation time, rather than 24 hours; MOLT-4, top concentration 10 micromolar; read-out: HiBIT-degradation MOLT4 PIP4k2C DC50 (6 hours, marked *). In outline: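 Luminescent HiBiT lytic readout of residual PIP4K2C-HiBiT (CRISPR knock-in, MOLT-4, phenol red-free RPMI-1640 + 10% FBS). Cells exposed 6 or 24 h at 37 C to compound, top 10 micromolar, 3-fold, 10 points, duplicate. Hill fit (Levenberg-Marquardt) gives DC50.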
For orientation: With HiBiT, luminescence reflects the tagged protein that the partner subunit can reach.
Regarding `O=C1CCC(Nc2ccc(N3CCN([C@H]4CC[C@H](NC(=O)[C@H]5CC[C@H](Nc6ncc(F)c(-c7cccc(-n8ccccc8=O)c7)n6)CC5)CC4)CC3)c(F)c2)C(=O)N1` (stereo partly drawn) [Compound 381, trans-(1r,4R)—N-((1r,4R)-4-(4-(4-((2,6-dioxopiperidin-3-yl)amino)-2-fluorophenyl)piperazin-1-yl)cyclohexyl)-4-((5-fluoro-4-(3-(2-oxopyridin-1(2H)-yl)phenyl)pyrimidin-2-yl)amino)cyclohexane-1-carboxamide], the 50% degradation concentration (DC50) was below 500 nM.
Regarding `O=C1CCC(Nc2ccc(N3CCN([C@H]4CC[C@H](NC(=O)[C@H]5CC[C@H](Nc6ncc(F)c(-c7cccc(-c8ccc[nH]c8=O)c7)n6)CC5)CC4)CC3)c(F)c2)C(=O)N1` (stereo partly drawn) [Compound 382, trans-N-(trans-4-(4-(4-((2,6-dioxopiperidin-3-yl)amino)-2-fluorophenyl)piperazin-1-yl)cyclohexyl)-4-((5-fluoro-4-(3-(2-oxo-1,2-dihydropyridin-3-yl)phenyl)pyrimidin-2-yl)amino)cyclohexane-1-carboxamide], the DC50 is below 500 nM.
Same read-out and setting: in the case of `Cn1nc(C2CCC(=O)NC2=O)c2ccc(N3CCN([C@H]4CC[C@H](NC(=O)[C@H]5CC[C@H](Nc6ncc(F)c(-c7cccc(-n8ccccc8=O)c7)n6)CC5)CC4)CC3)cc21` (stereo partly drawn) [Compound 383, trans-N-(trans-4-(4-(3-(2,6-dioxopiperidin-3-yl)-1-methyl-1H-indazol-6-yl)piperazin-1-yl)cyclohexyl)-4-((5-fluoro-4-(3-(2-oxopyridin-1(2H)-yl)phenyl)pyrimidin-2-yl)amino)cyclohexane-1-carboxamide] it was below 500 nM; in that of `O=C1CCC(Nc2ccc(C3CCN(CC4CCN(C(=O)[C@H]5CC[C@H](Nc6ncc(F)c(-c7cccc(-c8ccc[nH]c8=O)c7)n6)CC5)CC4)CC3)c(F)c2)C(=O)N1` (stereo partly drawn) [Compound 384, trans-3-((3-fluoro-4-(1-((1-(4-((5-fluoro-4-(3-(2-oxo-1,2-dihydropyridin-3-yl)phenyl)pyrimidin-2-yl)amino)cyclohexane-1-carbonyl)piperidin-4-yl)methyl)piperidin-4-yl)phenyl)amino)piperidine-2,6-dione], below 500 nM; in that of `Cn1nc(C2CCC(=O)NC2=O)c2ccc(C3CCN(CC4CCN(C(=O)[C@H]5CC[C@H](Nc6ncc(F)c(-c7cccc(-n8ccccc8=O)c7)n6)CC5)CC4)CC3)cc21` (stereo partly drawn) [Compound 385, trans-3-(6-(1-((1-(4-((5-fluoro-4-(3-(2-oxopyridin-1(2H)-yl)phenyl)pyrimidin-2-yl)amino)cyclohexane-1-carbonyl)piperidin-4-yl)methyl)piperidin-4-yl)-1-methyl-1H-indazol-3-yl)piperidine-2,6-dione], below 500 nM.
In the case of `O=C1CCC(Nc2ccc(N3CCC(CN4CCN(C(=O)[C@H]5CC[C@H](Nc6ncc(F)c(-c7cccc(-n8ccccc8=O)c7)n6)CC5)CC4)CC3)c(F)c2)C(=O)N1` (stereo partly drawn) [Compound 387, trans-3-((3-fluoro-4-(4-((4-(4-((5-fluoro-4-(3-(2-oxopyridin-1(2H)-yl)phenyl)pyrimidin-2-yl)amino)cyclohexane-1-carbonyl)piperazin-1-yl)methyl)piperidin-1-yl)phenyl)amino)piperidine-2,6-dione], the DC50 is below 500 nM.

Still in this assay, the particulars now being: 24 hours incubation, MOLT-4, top concentration 10 micromolar; read-out: HiBIT-degradation MOLT4 PIP4k2C 24 hours DC50.
`O=C1CCC(n2c(=O)oc3cc(C4CCN(CC5CCN(CC(=O)N[C@H]6CC[C@H](Nc7ncc(Cl)c(-c8cccc(-n9ccccc9=O)c8)n7)CC6)CC5)CC4)ccc32)C(=O)N1` (stereo partly drawn) [Compound 369, trans-N-(4-((5-chloro-4-(3-(2-oxopyridin-1(2H)-yl)phenyl)pyrimidin-2-yl)amino)cyclohexyl)-2-(4-((4-(3-(2,6-dioxopiperidin-3-yl)-2-oxo-2,3-dihydrobenzo[d]oxazol-6-yl)piperidin-1-yl)methyl)piperidin-1-yl)acetamide]: the DC50 was below 500 nM.
`CC(C(=O)N1CCC(Nc2ncc(F)c(-c3cccc(-n4ccccc4=O)c3)n2)CC1)N1CCC(CN2CCC(c3ccc4c(c3)oc(=O)n4C3CCC(=O)NC3=O)CC2)CC1` (centres unmarked) [Compound 370, 3-(6-(1-((1-(1-(4-((5-fluoro-4-(3-(2-oxopyridin-1(2H)-yl)phenyl)pyrimidin-2-yl)amino)piperidin-1-yl)-1-oxopropan-2-yl)piperidin-4-yl)methyl)piperidin-4-yl)-2-oxobenzo[d]oxazol-3 (2H)-yl)piperidine-2,6-dione]: the DC50 was below 500 nM.
For the compound `O=C1CCC(n2c(=O)oc3cc(C4CCN(CC5CCN(CC(=O)N6CCC(Nc7ncc(F)c(-c8cccc(N9CCCOC9=O)c8)n7)CC6)CC5)CC4)ccc32)C(=O)N1` (centres unmarked) [Compound 371, 3-(6-(1-((1-(2-(4-((5-fluoro-4-(3-(2-oxo-1,3-oxazinan-3-yl)phenyl)pyrimidin-2-yl)amino)piperidin-1-yl)-2-oxoethyl)piperidin-4-yl)methyl)piperidin-4-yl)-2-oxobenzo[d]oxazol-3 (2H)-yl)piperidine-2,6-dione], the half-maximal degradation concentration (DC50) was below 500 nM.
Take `O=C1CCC(n2c(=O)oc3cc(C4CCN(CC5CCN(CC(=O)N6CCC(Nc7ncc(F)c(-c8cccc(N9CCOC9=O)c8)n7)CC6)CC5)CC4)ccc32)C(=O)N1` (centres unmarked) [Compound 372, 3-(6-(1-((1-(2-(4-((5-fluoro-4-(3-(2-oxooxazolidin-3-yl)phenyl)pyrimidin-2-yl)amino)piperidin-1-yl)-2-oxoethyl)piperidin-4-yl)methyl)piperidin-4-yl)-2-oxobenzo[d]oxazol-3 (2H)-yl)piperidine-2,6-dione]: the half-maximal degradation concentration (DC50) was below 500 nM.
Same read-out and setting: in the case of `O=C1CCC(n2c(=O)oc3cc(C4CCN(CC5CCN(CC(=O)N6CCC(Nc7ncc(Cl)c(-c8cccc(-n9ccccc9=O)c8)n7)CC6)CC5)CC4)ccc32)C(=O)N1` (centres unmarked) [Compound 373, 3-(6-(1-((1-(2-(4-((5-chloro-4-(3-(2-oxopyridin-1(2H)-yl)phenyl)pyrimidin-2-yl)amino)piperidin-1-yl)-2-oxoethyl)piperidin-4-yl)methyl)piperidin-4-yl)-2-oxobenzo[d]oxazol-3 (2H)-yl)piperidine-2,6-dione] it was above 5000 nM; in that of `O=C1CCC(Nc2ccc(N3CCN(CC4CCN(C(=O)[C@H]5CC[C@H](Nc6ncc(F)c(-c7cccc(-n8ccccc8=O)c7)n6)CC5)CC4)CC3)c(F)c2)C(=O)N1` (stereo partly drawn) [Compound 374, trans-3-((3-fluoro-4-(4-((1-(4-((5-fluoro-4-(3-(2-oxopyridin-1(2H)-yl)phenyl)pyrimidin-2-yl)amino)cyclohexane-1-carbonyl)piperidin-4-yl)methyl)piperazin-1-yl)phenyl)amino)piperidine-2,6-dione], below 500 nM.
For `O=C1CCC(Nc2ccc(N3CCN(CC4CCN(C(=O)[C@H]5CC[C@H](Nc6ncc(F)c(-c7cccc(-c8ccc[nH]c8=O)c7)n6)CC5)CC4)CC3)c(F)c2)C(=O)N1` (stereo partly drawn) [Compound 376, trans-3-((3-fluoro-4-(4-((1-(4-((5-fluoro-4-(3-(2-oxo-1,2-dihydropyridin-3-yl)phenyl)pyrimidin-2-yl)amino)cyclohexane-1-carbonyl)piperidin-4-yl)methyl)piperazin-1-yl)phenyl)amino)piperidine-2,6-dione], the DC50 is below 500 nM.
Same read-out and setting: next, `O=C1CCC(Nc2ccc(N3CCC(N4CC5(CC(OC(=O)N[C@H]6CC[C@H](Nc7ncc(F)c(-c8cccc(-n9ccccc9=O)c8)n7)CC6)C5)C4)CC3)c(F)c2)C(=O)N1` (stereo partly drawn) [Compound 377, trans-2-(1-(4-((2,6-dioxopiperidin-3-yl)amino)-2-fluorophenyl)piperidin-4-yl)-2-azaspiro[3.3]heptan-6-yl (4-((5-fluoro-4-(3-(2-oxopyridin-1(2H)-yl)phenyl)pyrimidin-2-yl)amino)cyclohexyl)carbamate]: below 500 nM.
Regarding `O=C1CCC(n2c(=O)oc3cc(N4CCC(CN5CCN(CC(=O)N6CCC(Nc7ncc(F)c(-c8cccc(-n9ccccc9=O)c8)n7)CC6)CC5)CC4)ccc32)C(=O)N1` (centres unmarked) [Compound 378, 3-(6-(4-((4-(2-(4-((5-fluoro-4-(3-(2-oxopyridin-1(2H)-yl)phenyl)pyrimidin-2-yl)amino)piperidin-1-yl)-2-oxoethyl)piperazin-1-yl)methyl)piperidin-1-yl)-2-oxobenzo[d]oxazol-3 (2H)-yl)piperidine-2,6-dione], the DC50 was below 500 nM.
For the compound `O=C1CCC(n2c(=O)oc3cc(C4CCN(CC5CCN(CC(=O)N6CCC(Nc7ncc(F)c(-c8cccc(-c9ccc[nH]c9=O)c8)n7)CC6)CC5)CC4)ccc32)C(=O)N1` (centres unmarked) [Compound 379, 3-[6-[1-[[1-[2-[4-[[5-fluoro-4-[3-(2-oxo-1H-pyridin-3-yl)phenyl]pyrimidin-2-yl]amino]-1-piperidyl]-2-oxo-ethyl]-4-piperidyl]methyl]-4-piperidyl]-2-oxo-1,3-benzoxazol-3-yl]piperidine-2,6-dione], the DC50 is below 500 nM.
Turning to `O=C1CCC(n2c(=O)oc3cc(N4CCC(CN5CCC(O)(CC(=O)N6CCC(Nc7ncc(F)c(-c8cccc(-n9ccccc9=O)c8)n7)CC6)CC5)CC4)ccc32)C(=O)N1` (centres unmarked) [Compound 380, 3-(6-(4-((4-(2-(4-((5-fluoro-4-(3-(2-oxopyridin-1(2H)-yl)phenyl)pyrimidin-2-yl)amino)piperidin-1-yl)-2-oxoethyl)-4-hydroxypiperidin-1-yl)methyl)piperidin-1-yl)-2-oxobenzo[d]oxazol-3 (2H)-yl)piperidine-2,6-dione], the DC50 was below 500 nM.

What is called DC50 is the concentration at which degradation of the target reaches its halfway point.
